# Legend:
# [1] = system: Brn-3a+ cells (RGCs); test: Brn3a-labeled flat-mounted retinas after ON crush; assay type: in vivo, Wistar rats; settings: for densities of Brn-3a+ cells in mid-peripheral retina / densities of Brn-3a+ cells in the central retina: after ON crush, 15 mg/Kg once by subcutaneous injection, 15 mg/kg
# Description: (§1) An ON crush injury was induced as described in the previous report. (Chien J Y, Sheu J H, Wen Z H, Tsai R K, Huang S P. Neuroprotective effect of 4-(Phenylsulfanyl)butan-2-one on optic nerve crush model in rats. Experimental eye research. 2016; 143:148-57. Epub 2015/10/17). Briefly, rats were general anesthetized and eye were further anesthetized with topical 0.5% Alcaine eye drops. The conjunctiva was cut with Vannas scissors to expose the optic nerve. Care was taken to avoid damaging the small vessels around the ON. Injury was introduced by crushing the ON 2 mm posterior to the globe with a vascular clip (60 g micro-vascular clip, World Precision Instruments, FL, USA) for 30 seconds. After the surgery, Tobradex eye ointment (Alcon, Puurs, Belgium) was administered. The rats were kept under supervision and on electric heating pads at 37° C. for recovery. A sham operation was performed by exposing the ON in the same way but not crushed. Oroxyiln A (15 mg/Kg in 0.2 ml phosphate-buffered saline) or phosphate-buffered saline (PBS control) was immediately administered after ON crush once by subcutaneous injection.
# Animals were euthanized and eyes were enucleated and fixed in 10% formalin for 1 hour. Retina flat mounts were subjected to immunofluorescent staining for Brn-3a as previously described. (Tual-Chalot S, Allinson K R, Fruttiger M, Arthur H M. Whole Mount Immunofluorescent Staining of the Neonatal Mouse Retina to Investigate Angiogenesis In vivo. 2013; (77):e50546). In brief, flat mounts were washed with PBS and blocked with blocking buffer (PBS with 0.3% Triton-X and 5% Fetal Bovine Serum) for 1 hour. Flat mounts were then incubated with primary monoclonal antibody Brn-3a (1:200; Santa Cruz, Calif., USA) for 24 hours, washed with PBS and treated with secondary antibody Alexa flour 488 (1:400; Life Technologies, OR, USA) and incubated overnight. 8 to 10 microphotographs were captured for every retina flat mount covering central and mid peripheral region.
# [2] = system: COX-2; test: COX-2 immunoblot in the retina after ON crush; assay type: in vivo, Wistar rats; settings: two weeks after ON crush, ratio to GAPDH, vs PBS-treated
# Description: as §1, with “Oroxyiln A (15 mg/Kg in 0.2 ml phosphate-buffered saline) or phosphate-buffered saline (PBS control) was immediately administered after ON crush once by subcutaneous injection.” left out
# (§2) Total retinal protein extracts from rat retina were prepared using modified radioimmunoprecipitation (RIPA) buffer. The protein concentrations were determined using the BCA (bicinchoninic acid) protein assay kit (Pierce). […] The proteins on the membranes were detected using an enhanced chemiluminescence (ECL) system (Amersham Biosciences). […]
# [3] = system: RGCs; test: Retrograde Fluorogold labeling of RGCs, RGC density after ON crush; assay type: in vivo, Wistar rats
# Description: as §1
# Retrograde labeling of RGCs with Fluorogold (FG) and densities of RGCs. The detailed procedures have been described in the previous reports. (Chien J Y, Sheu J H, Wen Z H, Tsai R K, Huang S P. Neuroprotective effect of 4-(Phenylsulfanyl)butan-2-one on optic nerve crush model in rats. Experimental eye research. 2016; 143:148-57. Epub 2015/10/17; Tsai R K, Chang C H, Wang H Z. Neuroprotective effects of recombinant human granulocyte colony-stimulating factor (G-CSF) in neurodegeneration after optic nerve crush in rats. Experimental eye research. 2008; 87(3):242-50. Epub 2008/07/08). Briefly, retrograde labeling of RGCs with FG was performed one week before sacrificing to avoid overcounting RGCs by mixing labeled RGCs with dye-engulfed macrophages and microglia. (Huang T L, Huang S P, Chang C H, Lin K H, Sheu M M, Tsai R K. Factors influencing the retrograde labeling of retinal ganglion cells with fluorogold in an animal optic nerve crush model. Ophthalmic research. 2014; 51(4):173-8. Epub 2014/03/26). The rats were anesthetized using a ketamine (100 mg/kg) and xylazine (10 mg/kg) mixture, and then placed in a stereotactic apparatus (Stoelting, Wood Dale, Ill., USA). […] One week after labeling, the eyeballs were harvested after euthanasia of the animals. The eyeballs were placed in 10% formalin and the whole retina was then carefully dissected, flattened. The retina was examined with a 400 epi-fluorescence microscope (Axioskop; Carl Zeiss Meditec. Inc., Jena, Germany) equipped with a filter set (excitation filter: 350-400 nm; barrier filter: 515 nm), as well as a digital camera (Axiocam MRm) and software (Axiovision 4.0). The retinas were examined for RGCs at a distance of 1 or 3 mm ([…] from the center to provide the central and mid-peripheral RGC densities respectively. Eight randomly chosen areas (38250 μm2; […]) in the central (about 40% of the central area) and mid-peripheral (about 30% of the mid-periphery) regions of each retina (n=6 per group) were counted. The averages of these areas were taken as the mean density of RGCs per retina. RGC survival percentage was defined as the number of RGCs in each treatment group divided by the number of RGCs in the sham-operated retina, multiplied by 100.
# [4] = system: GFAP; test: GFAP IHC and immunoblot in the retina after ON crush; assay type: in vivo, Wistar rats; settings: 2 weeks after ON crush, vs ON-crushed, PBS-treated group, p<0.05
# Description: An ON crush injury was induced as described in the previous report. (Chien J Y, Sheu J H, Wen Z H, Tsai R K, Huang S P. Neuroprotective effect of 4-(Phenylsulfanyl)butan-2-one on optic nerve crush model in rats. Experimental eye research. 2016; 143:148-57. Epub 2015/10/17). Briefly, rats were general anesthetized and eye were further anesthetized with topical 0.5% Alcaine eye drops. The conjunctiva was cut with Vannas scissors to expose the optic nerve. Care was taken to avoid damaging the small vessels around the ON. Injury was introduced by crushing the ON 2 mm posterior to the globe with a vascular clip (60 g micro-vascular clip, World Precision Instruments, FL, USA) for 30 seconds. […]
# (§3) IHC of ED1 (CD68, a marker of macrophage/microglia) in the ONs and IHC of GFAP in the retina using monoclonal antibody (ED1, 1:50; AbD Serotec, Oxford, UK) or polyclonal antibody (GFAP, 1:200; Cambridge, Mass., USA) was performed. […] For comparison, ED1 positive cells were counted in six HPF at the lesion site of ON (n=6 in each group).
# as §2
# [5] = system: ED1 (CD68, a marker of macrophage/microglia); test: IHC of ED1 in the ONs after ON crush; assay type: in vivo, Wistar rats; settings: 2 weeks after ON crush; 15 mg/Kg once by subcutaneous injection; n=6
# Description: as §1, with “Oroxyiln A (15 mg/Kg in 0.2 ml phosphate-buffered saline) or phosphate-buffered saline (PBS control) was immediately administered after ON crush once by subcutaneous injection.” left out
# as §3
# [6] = system: hippocampal dentate gyrus region; settings: in vivo studies; cited from earlier work
# [7] = system: microglia; settings: cited from earlier work
# [8] = system: rat model subject to ON crush; test: Flash visual-evoked potentials (FVEPs) after ON crush; assay type: in vivo, Wistar rats; settings: 2 weeks after ON crush; 15 mg/Kg once by subcutaneous injection; n=6
# Description: as §1
# For the functional evaluation of the ON, FVEPs were recorded 2 weeks after ON crush in 18 experimental rats. The groups in assessing FVEP were masked. […]
# [9] = system: apoptotic cells in the RGC layer; test: TUNEL assay in the RGC layer of the retina after ON crush; assay type: in vivo, Wistar rats; settings: 15 mg/Kg once by subcutaneous injection, n=6
# Description: as §1, with “Oroxyiln A (15 mg/Kg in 0.2 ml phosphate-buffered saline) or phosphate-buffered saline (PBS control) was immediately administered after ON crush once by subcutaneous injection.” left out
# To ensure the use of equivalent fields for comparison, all retinal frozen sections were prepared with retinas at 1-2 mm distance from the ONH. […] The TUNEL positive cells in the RGC layer of each sample were counted in ten high powered fields (HPF, ×400 magnification), and three sections per eye were averaged. […]
# [10] = system: RAW264.7 macrophages; settings: through inhibiting the activation of NFκB-p65; cited from earlier work
# [11] = system: iNOS; test: iNOS immunoblot in the retina after ON crush; assay type: in vivo, Wistar rats; settings: two weeks after ON crush, ratio to GAPDH, vs PBS-treated
# Description: as §1, with “Oroxyiln A (15 mg/Kg in 0.2 ml phosphate-buffered saline) or phosphate-buffered saline (PBS control) was immediately administered after ON crush once by subcutaneous injection.” left out
# as §2
# [12] = compared to the PBS-treated group
# [13] = relative to sham-operated retina, two weeks after ON crush
# [14] = two weeks after ON crush, 15 mg/Kg once by subcutaneous injection, n=6
structure (smiles),measurement,setting,value
"COc1c(O)cc2oc(-c3ccccc3)cc(=O)c2c1O [oroxylin A, 5,7-dihydroxy-6-methoxyflavone]",densities of Brn-3a+ cells in mid-peripheral retina,[1],801±199 /mm^2
same,densities of Brn-3a+ cells in the central retina,[1],847±367 /mm^2
same,densities of Brn-3a+ cells in mid-peripheral retina,[1]; listed as oroxylin-A,800±199 /mm^2
same,densities of Brn-3a+ cells in the central retina,[1]; listed as oroxylin-A,894±367 /mm^2
same,"RGC survival rate increase vs PBS-treated group, central retina (Brn-3a)",[1]; [12],approximately 30.4%
same,"RGC survival rate increase vs PBS-treated group, mid-peripheral retina (Brn-3a)",[1]; [12],~29.7%
same,"RGC survival, central retina (Brn-3a)",[1]; relative to sham-operated eyes,64.9 % survival
same,"RGC survival, mid-peripheral retina (Brn-3a)",[1]; relative to sham-operated eyes,73 % survival
same,expression level of COX-2 in the retina,[2],reducing the expression level
same,expression level of COX-2 in the retina,[2]; listed as Oroxylin A,suppressed the increase
same,"RGC survival rate increase vs PBS-treated group, central retina (FG labeling)",[3]; [12],approximately 32.7%
same,"RGC survival rate increase vs PBS-treated group, mid-peripheral retina (FG labeling)",[3]; [12],~33.6%
same,"RGC survival, central retina (FG labeling)",[3]; [13],52.5 % survival
same,"RGC survival, mid-peripheral retina (FG labeling)",[3]; [13],61.9 % survival
same,densities of RGCs in mid-peripheral retina (FG labeling),[3]; [14],960±465 /mm^2
same,densities of RGCs in the central retina (FG labeling),[3]; [14],1352±476 /mm^2
same,GFAP level in the retina (retinal gliosis),[4],significantly reduced
same,GFAP level in the retina (retinal gliosis),[4]; listed as Oroxylin A,attenuated retinal gliosis
same,ED1 positive cells at the ON lesion site,[5],33.5±16.3 cells/HPF
same,adult neurogenesis in the hippocampal dentate gyrus region,[6],stimulated
same,amyloid (Aβ)-induced memory impairment,[6],ameliorated
same,cerebral hypoperfusion-induced neuronal damage,[6],prevented
same,LPS-induced NO production,[7],strong inhibitory activities
same,latency of the P1 wave in FVEP,[8],100 ± 12 ms
same,TUNEL positive cells in the RGC layer,[9],4.0±2.4 positive cells/HPG
same,LPS-induced iNOS and cyclooxygenase-2 expression,[10],suppresses
same,expression level of iNOS in the retina,[11],reducing the expression level
same,expression level of iNOS in the retina,[11]; listed as Oroxylin A,suppressed the increase
